# From US12109184B2, “Personalized methods of treating cancer” (CANCER RESEARCH TECHNOLOGY LIMITED, priority 2020, dated 2024)
# “Also recorded” adds a separate entry of the source.
# Experiments:
# Type in all cases: cell-based
# [1] = system: MDA-MB-231, MIAPaCa-2 and PANC-1 cells; assay: Cell counting during cysteine starvation, starvation-sensitive cell lines
# Protocol: (§1) The base medium formulation contained 0.2 mM L-histidine, 0.4 mM L-isoleucine, 0.4 mM L-leucine, 0.4 mM L-lysine, 0.2 mM L-phenylalanine, 0.4 mM L-threonine, 0.08 mM L-tryptophan, 0.4 mM L-valine, 0.2 mM L-arginine, 2 mM L-glutamine, 0.2 mM L-tyrosine, 0.4 mM L-alanine, 0.3 mM L-proline, 0.15 mM L-glutamic acid, 0.1 mM L-aspartic acid, 0.2 mM L-asparagine, and 0.4 mM glycine.
# (§2) DAPI-stained cell nuclei were detected via microscopy.
# (§3) AMD1 inhibitor sardomozide/SAM486A, GPX4 inhibitor RSL3, and CSE inhibitor beta-cyano-L-alanine were used.
# (§4) For experiments using spermine oxidase (SMOX) and polyamine oxidase (PAOX) inhibitors or MTOB, cells were pre-treated with stated concentrations for 16 hours in complete medium. After pre-treatment, cells were washed in PBS, and treatment was continued in complete or cysteine-free medium for stated times. After treatment was finished, cells were fixed and stained as described above. For experiments using MTA, polyamines, GPX4 and CSE inhibitors, treatment started at the same time as cysteine starvation. For experiments involving hypoxic conditions, cells were seeded in normoxic conditions and allowed to adhere for 24 hours before control and cysteine starvation medium was added and cells were immediately transferred either to a humidified cell culture incubator set to 37° C. in 20% O2 (normoxia), or a hypoxia chamber set to 37° C. in 1% O2 (hypoxia) for the stated times. Cells were fixed immediately and stained as described above.
# [2] = system: HCT116, SW480 and MDA-MB-468 cells; assay: Cell counting during cysteine starvation, starvation-resistant cell lines; settings: for cysteine starvation sensitivity on polyamine supplementation: polyamine 20 μM in medium without cysteine
# Protocol: as §1, §2, §3, §4
# [3] = system: MDA-MB-231, PANC-1, and MIAPaCa-2 cells; assay: CellROX assay on live cells, starvation-sensitive cell lines; settings: −Cys, 16 h timepoint
# Protocol: (§5) Cells were seeded as described above. Live cells were stained with Hoechst 33342 nuclear stain for 20 min. The medium was removed, and cells were stained in 100 μl medium containing CellTracker™ Green CMFDA Dye and Hoechst stain for 40 min. The cells were then washed with PBS, and 300 μl of the relevant experimental medium was added for 1 hour. Then, CellROX® Deep Red was spiked into the medium, and the cells were incubated for 40 min. The medium was removed, the cells were washed with PBS, and new relevant experimental medium including CellROX was added. The cells were imaged using an Operetta automated microscope platform set to 37° C. in 5% CO2 every hour for 16-24 hours. I
# [4] = system: MTAP-deleted HCT116 cells; assay: Cell counting during cysteine starvation, MTAP-deleted HCT116; settings: for cell survival during cysteine starvation: SMOX inhibitor, PAOX inhibitor or MTOB supplementation
# Source text: [NT] Successfully transfected cells were selected with puromycin and grown as clonal colonies. Clones were selected based initially on MTA efflux measured by liquid chromatography mass spectrometry (LC-MS). Clones with greatest MTA efflux were selected, and methylthioadenosine phosphorylase knockout (MTAP-KO) was then confirmed by western blot. MTAP-KO HCT116 cells were transfected with pCMV-Hygro-MTAP and pCMV-Hygro-negative control vector, selected using hygromycin B, and grown as clonal colonies. Clones were selected based initially on MTA efflux measured by LC-MS. Clones with low MTA efflux were selected, then MTAP re-expression was confirmed by western blot. […] DAPI-stained cell nuclei were detected via microscopy. […] For experiments using spermine oxidase (SMOX) and polyamine oxidase (PAOX) inhibitors or MTOB, cells were pre-treated with stated concentrations for 16 hours in complete medium. After pre-treatment, cells were washed in PBS, and treatment was continued in complete or cysteine-free medium for stated times. After treatment was finished, cells were fixed and stained as described above. For experiments using MTA, polyamines, GPX4 and CSE inhibitors, treatment started at the same time as cysteine starvation. For experiments involving hypoxic conditions, cells were seeded in normoxic conditions and allowed to adhere for 24 hours before control and cysteine starvation medium was added and cells were immediately transferred either to a humidified cell culture incubator set to 37° C. in 20% O2 (normoxia), or a hypoxia chamber set to 37° C. in 1% O2 (hypoxia) for the stated times. Cells were fixed immediately and stained as described above.
# [5] = system: MTAP-expressing HCT116 cells; assay: Cell counting during cysteine starvation, MTAP-expressing HCT116; settings: SMOX inhibitor, PAOX inhibitor or MTOB supplementation
# Source text: [NT] Successfully transfected cells were selected with puromycin and grown as clonal colonies. Clones were selected based initially on MTA efflux measured by liquid chromatography mass spectrometry (LC-MS). Clones with greatest MTA efflux were selected, and methylthioadenosine phosphorylase knockout (MTAP-KO) was then confirmed by western blot. MTAP-KO HCT116 cells were transfected with pCMV-Hygro-MTAP and pCMV-Hygro-negative control vector, selected using hygromycin B, and grown as clonal colonies. Clones were selected based initially on MTA efflux measured by LC-MS. Clones with low MTA efflux were selected, then MTAP re-expression was confirmed by western blot. […] DAPI-stained cell nuclei were detected via microscopy. For experiments using spermine oxidase (SMOX) and polyamine oxidase (PAOX) inhibitors or MTOB, cells were pre-treated with stated concentrations for 16 hours in complete medium. After pre-treatment, cells were washed in PBS, and treatment was continued in complete or cysteine-free medium for stated times. After treatment was finished, cells were fixed and stained as described above. For experiments using MTA, polyamines, GPX4 and CSE inhibitors, treatment started at the same time as cysteine starvation. For experiments involving hypoxic conditions, cells were seeded in normoxic conditions and allowed to adhere for 24 hours before control and cysteine starvation medium was added and cells were immediately transferred either to a humidified cell culture incubator set to 37° C. in 20% O2 (normoxia), or a hypoxia chamber set to 37° C. in 1% O2 (hypoxia) for the stated times. Cells were fixed immediately and stained as described above.
# [6] = system: breast, colorectal and pancreatic cancer cell lines; assay: Cell counting in complete or cysteine-free medium, cell lines not given; settings: for duration of rescue from cysteine starvation: AMD1 inhibitor or MTOB supplementation
# Protocol: as §1, §2, §3, §4
# [7] = system: MDA-MB-231, PANC-1, and MIAPaCa-2 cells; assay: LC-MS analysis with labelled methionine (polyamine and TsP labelling); settings: 20 μM sardomozide or 0.1 mM MTOB
# Protocol: For experiments using labelled methionine, the same basic protocol was used as described for the steady state metabolite measurements described above. Experimental media were formulated lacking methionine or serine (described above) and supplemented with the stated concentrations of ^13C5^15N1-methionine, ^13C3^15N1-serine or ^34S1-methionine. Metabolites were extracted as described above.
# Prepared samples were analyzed on an LC-MS platform consisting of an Accela™ 600 LC system and an Exactive™ mass spectrometer. A Sequant® ZIC®-HILIC column (4.6 mm×150 mm, 3.5 μm) was used to separate the metabolites with the mobile phase using A=0.1% (v/v) formic acid in water and B=0.1% (v/v) formic acid in acetonitrile. A gradient program starting at 20% of A and linearly increasing to 80% at 30 min was used followed by washing (92% of A for 5 mins) and re-equilibration (20% of A for 10 min) steps. The total run time of the method was 45 min. The LC stream was desolvated and ionized in the HESI probe. The Exactive™ mass spectrometer was operated in full scan mode over a mass range of 70-1,200 m/z at a resolution of 50,000 with polarity switching. The LC-MS raw data was converted into mzML files by using ProteoWizard and imported to MZMine 2.10 for peak extraction and sample alignment. An in-house database including all possible ^13C and ^15N isotopic m/z values of the relevant metabolites was used for the assignment of LCMS signals. Finally the peak areas were used for comparative quantification.
# [8] = system: cysteine starved cells; assay: CellROX assay on live cells supplemented with polyamines; settings: polyamine 20 μM in medium without cysteine
# Protocol: as §5
Compound,cell survival during cysteine starvation [4],impact on cell survival during cysteine starvation [5],duration of rescue from cysteine starvation [6],levels of TsP intermediates [7],polyamine synthesis (dc-SAM and polyamine labelling) [7],cysteine starvation sensitivity on polyamine supplementation [2],ROS levels (CellROX deep red) [8],further results
C=C=CCNCCCCNCC=C=C [MDL 72527],rescued cell survival,little impact,,,,,,"cell death during cysteine starvation ([1]; SMOX inhibitor 50 μM or PAOX inhibitor 10, 40, 80 μM, 16 h pre-treatment then −Cys): prevented cell death; cell survival and growth under polyamine treatment concurrent with cysteine starvation ([2]; SMOX and PAOX inhibitors with spermidine or spermine, −Cys): restored HCT116, SW480, and MDA-MB-468 cell survival and growth; advantage during cysteine starvation ([2]; SMOX or PAOX inhibitor, 16 h pre-treatment then −Cys): little or no additional advantage; ROS levels (CellROX staining intensity) ([3]; 50 μM SMOX inhibitor): allowed cells to maintain lower ROS levels"
"CSCCC(=O)C(=O)O [MTOB, 4-methylthio-2-oxobutanoic acid]",rescued cell survival,little impact,temporary,did not appreciably increase,marked inhibition of polyamine synthesis,,,"rescue from cysteine starvation ([6]; 0.1 mM MTOB 16 h pre-treatment, then −Cys with MTOB 32 h): rescued cells from cysteine starvation"
N=C(N)N/N=C1\CCc2c(C(=N)N)cccc21 [sardomozide],,,temporary,did not appreciably increase,marked inhibition of polyamine synthesis,,,cell death in response to cysteine starvation ([1]; AMD1 inhibitor pre-treatment 16 h): prevented cell death; ROS levels (CellROX staining intensity) ([3]; 20 μM AMD1 inhibitor): diminished ROS levels; cell survival in response to cysteine starvation ([4]; AMD1 inhibitor): restored cell survival
NCCCCNCCCN [spermidine],,,,,,dramatic impact; also recorded: dramatically sensitized cells to cysteine starvation,rapid increase in ROS levels; also recorded: increased cellular ROS levels,
NCCCNCCCCNCCCN [spermine],,,,,,dramatic impact; also recorded: dramatically sensitized cells to cysteine starvation,rapid increase in ROS levels; also recorded: increased cellular ROS levels,
